According to patent US9511072B2, “Methods of modulating cell proliferation and cyst formation in polycystic kidney and liver diseases” (The Medical College of Wisconsin, Inc., priority 2006, dated 2016):
“Also recorded” adds a separate entry of the source.

Columns and labels:
[1] = system: EGF receptor (EGFR) phosphorylation in REC11 cells; experiment: Western blot of phosphorylated EGFR in REC11 cystic cells; assay type: cell-based, mouse; conditions: 10 μM
From the text: (§1) REC11 cystic cell line is a conditionally immortalized epithelial collecting tubule (CT) cell line derived from the cystic kidneys of the BPK mouse model of human ARPKD crossed to the ImmortoMouse. The BPK mouse as a human ARPKD model has been described in Nauta J. et al., Pediatr Nephrol 1993, 7:163-172 and Nauta J. et al., Pediatr Res 1995, 37:755-763. The procedures for immortalization, cell isolation, cell culture and the complete phenotypic characterization of this cell line have been described in detail in Sweeney W. E. et al., Am J Physiol C Physiol 2001, 281:C1695-705. All analysis and experiments were performed on REC11 cells grown for a minimum 6 days under non-permissive conditions to eliminate residual Large T. REC12 cell line is a conditionally immortalized epithelial collecting tubule (CT) cell line derived from the wild-type Balb/C littermates. The Balb/C is the strain of mice in which the BPK mutation arose (Nauta J. et al., Pediatr Nephrol 1993, 7:163-172 and Nauta J. et al., Pediatr Res 1995, 37:755-763).
(§2) REC11 cells (FIG. 2, lanes A and B) and control renal epithelial cells (REC12 cells: FIG. 2, lanes C and D) were grown for 10 days. Next, the cells were exposed to vehicle (lanes A and C) or 10 μM HET0016 (lanes B and D) and then harvested for assessment of the expression of phosphorylated EGFR by Western Blot analysis.

[2] = system: REC11 cells; experiment: BrdU proliferation of EGF-stimulated REC11 cystic renal epithelial cells; assay type: cell-based, mouse; conditions: 36 hrs, after EGF 25 ng/ml for 6 hours
From the text: as §1, with “T.” for “T. REC12 cell line is a conditionally immortalized epithelial collecting tubule (CT) cell line derived from the wild-type Balb/C littermates. The Balb/C is the strain of mice in which the BPK mutation arose (Nauta J. et al., Pediatr Nephrol 1993, 7:163-172 and Nauta J. et al., Pediatr Res 1995, 37:755-763).”
Proliferation of REC11 cells was stimulated by exposure of the cells for 6 hours with EGF (25 ng/ml). Next, the cells were treated with vehicle, HET0016 (10 μM, a 20-HETE synthesis inhibitor), HET0016 (20 μM), DDMS (10 μM, a 20-HETE synthesis inhibitor), or WIT-002 (10 μM, a 20-HETE antagonist) for 36 hrs, pulsed with BrdU, and then stained for BrdU labeled cells to determine the degree of cell proliferation. […] Cells treated with a higher dose of HET0016 (20 μM) (column C) reduced proliferation by 75% (p<0.020). Cells treated with another chemically dissimilar inhibitor of the synthesis of 20-HETE, DDMS (10 μM) (column D), reduced proliferation by 47% (p<0.05). Cells treated with WIT-002 (10 μM) (column E) reduced proliferation by 25%.

[3] = system: Balb/C mice; experiment: Chronic HET-0016 treatment of non-cystic Balb/C mice; assay type: in vivo, mouse; conditions: 10 mg/kg/day i.p.
[4] = system: EGF receptor (EGFR) phosphorylation in REC12 cells; experiment: Western blot of phosphorylated EGFR in normal REC12 cells; assay type: cell-based, mouse; conditions: 10 μM, REC12 normal renal epithelial cells
From the text: as §1, §2

[5] = system: Cyp4a12-expressing Balb/C cells; experiment: Cell counting of Cyp4a12-transduced non-cystic Balb/C cells; assay type: cell-based, mouse; conditions: 10 μM
Method: (§3) For the cell counting experiments, the non-cystic Balb/C (+/+) and cystic BPK renal epithelial cells were seeded in 6-well dishes and changed into media lacking γ-IFN at 37° C. (non-permissive conditions) for at least 6 additional days prior to assessing any phenotypic analyses to ensure the loss of the T antigen (Sweeney W E et al. Am J Physiol Cell Physiol, 281:C1695-705, 2001). Cells were harvested by tryptic digestion and counted by light microscopy using a hemocytometer.
(§4) The cells in this experiment were transduced using the lentiviral vectors in the presence of γ-IFN (i.e., permissive state) and allowed to expand. Once the cells were expanded, the transduced cells were grown in the absence of γ-IFN (i.e., non-permissive state) for 10 days. The cells were harvested and counted to initiate the proliferation experiment.
There was no significant difference (P>0.05) between Balb/C cells treated with vehicle or the EGFP-transduced lentiviral vectors.

[6] = system: cystic BPK renal epithelial cells; experiment: Cell counting of cystic BPK renal epithelial cells; assay type: cell-based, mouse; conditions: 10 μM added daily, day 2, non-permissive conditions
Method: as §3, §4

[7] = system: cystic PCK CT cells; experiment: BrdU proliferation of primary cystic PCK collecting tubule cells; assay type: cell-based, rat; conditions: 10 μM, 36 hours; vehicle 28.5%±1%
Method: Renal CT cells from the PCK rat were isolated as described in Sweeney W. E. et al., Am J Physiol C Physiol, 2001, 281:C1695-705, using monoclonal F-13 a principal cells specific surface marker (Fejes-Toth N et al., J Tiss Cult Meth 1991, 13:179-184).
To determine the level of proliferation in the cystic PCK CT cells, the cells were incubated with HET-0016 (10 μM) or vehicle for 36 hours. Three hours prior to the harvesting of the cells, 5-bromo-2′-deoxyuridine (BrdU) at a concentration of 30 μM was added to determine the level of cell cycle inhibition. The cells were subsequently methanol fixed and BrdU-positive cells were identified by immunohistology with biotinylated monoclonal anti-BrdU antibody (Zymed, South San Francisco, Calif.). Data were expressed as the percentage of BrdU-labeled cells per 500 counted cells. In the vehicle treated group, 28.5%±1% (n=3) were labeled with BrdU. In the HET-0016 treated group, 10.8%±1% (n=3) were labeled with BrdU.

[8] = Balb/c (+/+), post-natal day 7-20, day 21

N-hydroxy-N-(4-butyl-2-methylphenyl)-formamidine [HET0016]
phosphorylation of EGFR [1]: reduced the phosphorylation of EGFR | reduction of proliferation (BrdU labeled cells) vs vehicle ([2]; 10 μM): 66% | reduction of proliferation (BrdU labeled cells) vs vehicle ([2]; 20 μM): 75% | kidney weight, body weight and KW/BW ratio vs vehicle ([3]; Balb/C mice): unchanged | Body weight [3, 8]: 10.5 ± 1.3 g | KW/BW [3, 8]: 1.3 ± 0.2 % | Kidney Weight [3, 8]: 0.13 ± 0.02 g | phosphorylation of EGFR [4]: but not in normal renal epithelial cells; also recorded: lack of an effect | increased cell proliferation of Balb/C cells over-expressing Cyp4a12 [5]: completely abolished the increased cell proliferation | number of Cyp4a12-expressing Balb/C cells ([5]; day 3, without inhibitor 285,792±21,892): 49,700±5,085 | number of cystic BPK cells [6]: 40,744±4,322 | cells labeled with BrdU (per 500 counted cells) [7]: 10.8%±1%
